The values that follow come from PMC7522027 (Disease Models & Mechanisms, 2020).

Data set [1] relates to zebrafish embryos. Nature of the data set: zebrafish embryo assay (morphological developmental defects at 48 hpf). The note with it: for developmental defects in zebrafish embryos: broad concentration range; for effect on zebrafish embryo development: 20 µM (maximum tested concentration). It counts as in vivo, zebrafish (Danio rerio). The method, then: Zebrafish eggs obtained from family crosses of Tuebingen long fin zebrafish lines were used to assess the biological activity of all samples. The eggs were washed with fresh E3 medium and subsequently divided over 24-well plates, with ten embryos per well in 1000 µl E3 medium. Samples were added to the wells at various times as mentioned in the figures and legends. At 48 hpf, the zebrafish embryos were inspected for morphological developmental defects. Embryos displaying morphological defects were imaged using a Leica MZFLIII microscope equipped with a Leica DFC320 camera or Leica M165 FC microscope equipped with a Leica DMC5400 camera.

The target in the next data set is T1, caALK3 (Homo sapiens, UniProt P36894, Q233D).
T1 construct: expressed in transfected cells; host or cells: HEK 293T
T1 sequence (P36894 24-532 Q233D): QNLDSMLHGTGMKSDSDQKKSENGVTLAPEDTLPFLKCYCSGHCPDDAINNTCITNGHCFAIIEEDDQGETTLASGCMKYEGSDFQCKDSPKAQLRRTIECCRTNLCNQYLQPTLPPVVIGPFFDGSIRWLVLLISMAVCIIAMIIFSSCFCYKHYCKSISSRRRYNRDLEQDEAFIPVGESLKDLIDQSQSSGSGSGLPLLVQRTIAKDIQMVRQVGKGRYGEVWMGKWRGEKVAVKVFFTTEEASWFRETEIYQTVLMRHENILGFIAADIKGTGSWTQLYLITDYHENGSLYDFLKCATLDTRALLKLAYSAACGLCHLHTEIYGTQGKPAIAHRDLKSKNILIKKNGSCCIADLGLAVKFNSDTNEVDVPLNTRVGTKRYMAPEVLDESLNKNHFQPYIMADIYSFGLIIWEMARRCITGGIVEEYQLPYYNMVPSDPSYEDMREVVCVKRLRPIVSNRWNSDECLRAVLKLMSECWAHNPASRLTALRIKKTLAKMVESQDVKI
Nature of the data set: caALK3-induced SMAD1/5 phosphorylation in HEK 293T cells. The note with it: cercosporamide 1-10 µM, LDN193189 200 nM. Format: cell-based. The text has this:
(§1) HepG2 or HEK 293T cells were lysed in Laemmli sample buffer. Proteins were separated by sodium dodecyl sulfate polyacrylamide gel electrophoresis (SDS-PAGE) and transferred onto […] polyvinylidene difluoride (PVDF) membrane (IPVH00010, Merck Millipore). Membranes were blocked using 5% non-fat dry milk in Tris-buffered saline with 0.1% Tween 20 (655204, Merck Millipore) and probed with the respective primary and secondary antibodies. The signal was detected using Clarity™ Western ECL Substrate (1705060, Bio-Rad) and ChemiDoc Imaging System (17001402, Bio-Rad). The antibodies used for immunoblotting were raised against the following proteins: phospho-SMAD1/5/8 ([Persson et al., 1998]; 1:1000), SMAD1 (Cell Signaling Technology, #6944; 1:1000), GAPDH (Merck Millipore, #G8795; 1:5000) and hemagglutinin (HA; Roche, #12CA5; 1:1000).
(§2) For experiments with the caALK type I receptor constructs, HEK 293T cells were seeded in 24-well plates at ∼90% confluency and transfected with the DNA expression constructs in the presence of PEI. Thirty hours after transfection, the cells were added to serum-starved medium and treated with compounds for 16 h (overnight). Subsequently, the cells were washed with PBS and lysed in Laemmli sample buffer. […]

The target in the next data set is T2, caALK2 (Homo sapiens, UniProt Q04771, Q207D).
T2 construct: expressed in transfected cells; host or cells: HEK 293T
T2 sequence (Q04771 21-509 Q207D): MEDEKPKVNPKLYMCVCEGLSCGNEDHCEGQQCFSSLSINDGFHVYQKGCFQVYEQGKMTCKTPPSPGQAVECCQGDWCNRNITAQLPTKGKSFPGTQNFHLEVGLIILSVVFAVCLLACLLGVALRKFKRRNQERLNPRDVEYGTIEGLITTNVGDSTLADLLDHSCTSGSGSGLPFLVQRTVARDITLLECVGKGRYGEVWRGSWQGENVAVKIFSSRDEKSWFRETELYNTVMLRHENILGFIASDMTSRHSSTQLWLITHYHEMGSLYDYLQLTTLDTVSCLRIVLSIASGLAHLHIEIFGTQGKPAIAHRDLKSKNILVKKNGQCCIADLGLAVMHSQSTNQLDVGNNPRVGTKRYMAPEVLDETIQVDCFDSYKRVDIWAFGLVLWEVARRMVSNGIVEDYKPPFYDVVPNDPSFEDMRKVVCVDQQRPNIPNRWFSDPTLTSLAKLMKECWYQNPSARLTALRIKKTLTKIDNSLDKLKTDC
Nature of the data set: caALK2-induced SMAD1/5 phosphorylation in HEK 293T cells. It counts as cell-based. The note with it: cercosporamide 1-10 µM, LDN193189 200 nM.
Description: as §1, §2

Another data set deals with T3, caALK1 (Homo sapiens, UniProt P37023, Q201D).
T3 construct: expressed in transfected cells; host or cells: HEK 293T
T3 sequence (P37023 22-503 Q201D): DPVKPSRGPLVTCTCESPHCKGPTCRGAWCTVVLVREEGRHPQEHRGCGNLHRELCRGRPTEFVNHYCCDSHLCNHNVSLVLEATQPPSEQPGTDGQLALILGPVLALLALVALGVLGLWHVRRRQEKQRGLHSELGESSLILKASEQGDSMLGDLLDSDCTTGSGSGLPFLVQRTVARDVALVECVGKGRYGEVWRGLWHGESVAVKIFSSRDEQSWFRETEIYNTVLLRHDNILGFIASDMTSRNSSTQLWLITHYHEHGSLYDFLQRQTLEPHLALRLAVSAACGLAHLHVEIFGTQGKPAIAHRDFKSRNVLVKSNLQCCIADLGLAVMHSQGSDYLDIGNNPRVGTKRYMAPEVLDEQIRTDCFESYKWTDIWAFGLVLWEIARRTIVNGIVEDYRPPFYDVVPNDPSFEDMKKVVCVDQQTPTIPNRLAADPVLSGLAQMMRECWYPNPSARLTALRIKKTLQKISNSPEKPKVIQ
Nature of the data set: caALK1-induced SMAD1/5 phosphorylation in HEK 293T cells. The note with it: cercosporamide 1-10 µM, LDN193189 200 nM. Format: cell-based.
Description: as §1, §2

In data set [2] the test system is BMP2-induced SMAD1/5-dependent BRE-luc transcriptional reporter. Nature of the data set: BMP2-induced BRE-luc transcriptional reporter assay in HepG2 cells. The note with it: HepG2, BMP2 50 ng/ml; cercosporamide 100 nM to 10 µM, LDN-193189 200 nM. Format: cell-based, human. The method, then:
For luciferase transcriptional reporter assays, HepG2 cells were seeded in 9-cm plates at ∼60% confluency and transfected with polyethyleneimine (PEI). Twenty-four hours later, the transfected cells were seeded in 24-well plates at ∼60% confluency. Another 24 h later, the cells were serum starved for 6 h. Subsequently the cells were treated with compound or DMSO for 30 min. Thereafter, the cells were stimulated with BMP2 in the presence of compounds (or DMSO) for 16 h (overnight). Subsequently, the cells were washed with PBS and lysed. Luciferase activity was measured using the luciferase reporter assay system from Promega (Leiden, The Netherlands) by a Perkin Elmer luminometer Victor^3 1420. Each DNA transfection mixture was equalized with empty vector when necessary and every experiment was performed in triplicate. β-galactosidase expression construct was co-transfected and β-galactosidase was measured to normalize for differences in transfection efficiency. The BRE-luc reporter construct has been reported previously ([Korchynskyi and ten Dijke, 2002]).
Background: Reporter assays use an easily measured gene product as a stand-in for the process of interest.

The subject of a further data set is caALK6. Nature of the data set: caALK6-induced SMAD1/5 phosphorylation in HEK 293T cells. Format: cell-based, human. The note with it: cercosporamide 1-10 µM, LDN193189 200 nM.
Description: as §1, §2

The subject of data set [3] is BMP2-induced SMAD1/5 phosphorylation. Nature of the data set: BMP2-induced SMAD1/5 phosphorylation in HepG2 cells (immunoblot). Format: cell-based, human. The note with it: HepG2, BMP2 50 ng/ml, maximum tested concentration of 20 µM. On the procedure: For BMP stimulation, the HepG2 cells (∼50% confluency) were starved on serum-free medium for 6 h. Subsequently, prior to the addition of BMP ligands, the cells were treated with compound for 30 min. Next, the cells were stimulated with BMP2 (50 ng/ml) or BMP6 (50 ng/ml) for 45 min. The cells were then washed with PBS and lysed in Laemmli sample buffer for western blot analysis.
as §1
(In general: A western blot detects proteins with antibodies after separation by electrophoresis.)

Data set [4] deals with zebrafish embryos. Nature of the data set: in situ hybridization with krox20/myod probes in treated zebrafish embryos. Format: in vivo, zebrafish (Danio rerio). The note with it: 750 nM from 6 hpf, fixed at 12 hpf. The method, then:
Embryos were treated from approximately 6 hpf until 12 hpf when they were fixed in 4% paraformaldehyde overnight. In situ hybridization was performed using krox20 and myod anti-sense RNA probes as described elsewhere ([Thisse and Thisse, 2008]).

Structures are written as SMILES. “And” between values parts separate entries of the source, which are not always exact repeats. Equal entries are not always repeated.

`Cc1cccc(-c2[nH]ncc2-c2ccc3ncccc3n2)n1` [ALK5 kinase inhibitor II]: the “developmental defects in zebrafish embryos” value with zebrafish embryos [1] is “severely curved tail and fused eyes”.
As to `c1ccc2c(-c3cnn4cc(-c5ccc(N6CCNCC6)cc5)cnc34)ccnc2c1` [LDN-193189, reference compound], the “effect on caALK3-induced SMAD1/5 phosphorylation” value at caALK3 is given as “strongly reduced”. Further, the “effect on caALK2-induced SMAD1/5 phosphorylation” value at caALK2 is listed as “strongly reduced”. Besides, the “effect on caALK1-induced SMAD1/5 phosphorylation” value on caALK1 is “strongly reduced”. Moreover, the “effect on BMP2-induced BRE-luc activity” value in data set [2] is recorded as “potent antagonizing effect”. In addition, the “effect on caALK6-induced SMAD1/5 phosphorylation” value in the data set on caALK6 is recorded as “strongly reduced”. Further, the “developmental defects, single treatment” value in the data set on zebrafish embryos [1] (5 µM, from 7 hpf onwards) is given as “did not induce detectable developmental defects”.
In the case of `Cc1cc(Nc2cc(N)ncn2)c(=O)n2c1C(=O)NC21CCCCC1` [eFT508], the entries for the “effect on SMAD1/5 phosphorylation” value in data set [3] and in data set [3] (listed as eFT 508) were “no effect” and “did not affect”, respectively. Moreover, the “effect on zebrafish embryo development” value is on record as “no effect” with zebrafish embryos [1] and “did not induce developmental” in the data set with zebrafish embryos [1] (listed as eFT 508).
`CC(C)Oc1ccc(-c2cnc3c(-c4ccnc5ccccc45)cnn3c2)cc1` [DMH-1]: the lethality entry in the data set on zebrafish embryos [1] (250 nM, treatment from 2 hpf onwards) is “lethal”. In addition, in the data set on zebrafish embryos [1] (250 nM, treatment from 4 hpf), the “embryos in which treatment is lethal” value was 50%. Besides, in the data set on zebrafish embryos [1] (750 nM), the phenotype entry is reported as “loss of the ventral fin”. In addition, in the data set on zebrafish embryos [1] (DMH-1 treatment at 8 hpf (250 nM, Fig. S3)), the “phenotype at 48 hpf” value was “mild defects”. The krox20 expression pattern result with zebrafish embryos [4] was “induced lateral expression of krox20”. Further, the “fraction of embryos showing the pattern” value in the data set on zebrafish embryos [4] (one fraction per depicted pattern) was 9/13 and 4/13.
With `Cc1cccc(-c2nn(C(=S)Nc3ccccc3)cc2-c2ccnc3ccccc23)n1` [A83-01], the “developmental defects in zebrafish embryos” value in the data set on zebrafish embryos [1] was “severely curved tail and fused eyes”.
